Patent US6723747B2, “Substituted 6H-DiBenzo[c,h]chromenes as estrogenic agents” (Wyeth, priority 2001, dated 2004)
pIC50: −log10 of the molar value.

Columns and labels:
129 SvE mice = assay: Mouse uterotrophic test procedure (Procedure 2); type: in vivo; conditions: 50 mg/kg subcutaneously, 4 days, immature mice
Procedure: Procedure 2: Sexually immature (18 days of age) 129 SvE mice were obtained from Taconic and provided unrestricted access to a casein-based diet (Purina Mills 5K96C) and water. On day 22, 23, 24 and 25 the mice were dosed subcutaneously with compound or vehicle (corn oil). There were six mice/group and they were euthanized approximately 6 hours after the last injection by CO2 asphyxiation and pneumothorax. Uteri were removed and weighed after trimming associated fat and expressing any internal fluid. The following results (Table (2)) were obtained for representative compounds from the invention.

casein kinase II mRNA = assay: Mammary end bud test procedure (rat mammotrophic assay); type: in vivo; conditions: 0.1 mg/kg sc + progesterone 30 mg/kg; ovariectomized rats; vehicle 1.61 ± 0.36
Procedure: Estrogens are required for full ductal elongation and branching of the mammary ducts, and the subsequent development of lobulo-alveolar end buds under the influence of progesterone. In this test procedure, the mammotrophic activity of selected compounds of the invention was evaluated according to the following standard pharmacological test procedure. Twenty-eight day old Sprague-Dawley rats (Taconic Farms, Germantown, N.Y.) were ovariectomized and rested for nine days. […] For the final three days, rats were also dosed subcutaneously with progesterone (30 mg/kg). On the seventh day, rats were euthanised and a mammary fat pad excised. This fat pad was analyzed for casein kinase II mRNA as a marker of end bud proliferation. Casein kinase II mRNA was anlayzed by real-time RT-PCR. Briefly, RNA was isolated following Trizol (GibcoBRL, Grand Island, N.Y.) according to the manufacture's directions, Samples were treated with DNAse I using DNA-free kit (Ambion), and casein kinase II mRNA levels were measured by real-time RT-PCR using the Taqman Gold procedure (PE Applied Biosystems). […] Casein kinase II mRNA levels were normalized to 18s ribosomal RNA contained within each sample reaction using primers and probe supplied by PE Applied Biosystems. The following results were obtained for an example of the invention (Table (4)).

human ERβ = biological target: T1, human ERβ (Homo sapiens, UniProt Q92731); assay: Radioligand binding competition with [3H]-17β-estradiol, ERβ; conditions: human ERβ ligand binding domain, read-out: ER-β IC50
T1 construct: M214-Q530 of human ERβ; Flag (C); made in house; host or cells: E. coli BL21(DE3), clarified lysate

human ERα = biological target: T2, human ERα (Homo sapiens, UniProt P03372); assay: Radioligand binding competition with [3H]-17β-estradiol, ERα; conditions: human ERα ligand binding domain, read-out: ER-α IC50
T2 construct: amino acids M250-V595 of human ERα; His (N); made in house; host or cells: E. coli BL21(DE3), clarified lysate
T2 sequence (P03372 250-595): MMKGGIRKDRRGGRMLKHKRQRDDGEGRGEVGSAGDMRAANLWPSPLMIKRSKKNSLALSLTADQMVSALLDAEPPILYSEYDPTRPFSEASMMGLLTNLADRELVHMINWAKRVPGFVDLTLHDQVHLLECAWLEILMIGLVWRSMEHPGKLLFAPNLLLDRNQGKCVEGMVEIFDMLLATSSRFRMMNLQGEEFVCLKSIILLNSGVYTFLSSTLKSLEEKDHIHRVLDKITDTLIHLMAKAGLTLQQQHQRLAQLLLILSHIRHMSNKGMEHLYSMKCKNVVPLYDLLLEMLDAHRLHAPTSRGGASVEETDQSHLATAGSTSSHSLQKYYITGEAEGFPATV

[1] = system: progesterone receptor mRNA in the preoptic area of the rat brain; assay: Progesterone receptor mRNA regulation test procedure; type: in vivo; conditions: 10 mg/kg, vehicle 4.3 ± 1.5
From the text: This test procedure can be used to evaluate the estrogenic or antiestrogenic activity of compounds from this invention [Shughrue, et al., Endocrinology 138: 5476-5484 (1997)].

[2] = second experiment, vehicle 10.3 ± 0.8

T1 sequence (Q92731 214-530): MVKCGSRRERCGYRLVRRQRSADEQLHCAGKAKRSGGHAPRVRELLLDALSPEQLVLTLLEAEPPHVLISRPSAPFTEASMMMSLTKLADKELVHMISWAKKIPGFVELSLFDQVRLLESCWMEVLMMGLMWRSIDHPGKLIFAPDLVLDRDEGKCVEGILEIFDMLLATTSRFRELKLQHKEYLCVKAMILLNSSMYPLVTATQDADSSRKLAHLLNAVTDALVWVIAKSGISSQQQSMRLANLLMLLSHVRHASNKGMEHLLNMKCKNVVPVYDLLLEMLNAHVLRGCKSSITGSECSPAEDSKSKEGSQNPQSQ

Row | Compound | mean uterine weight ± SEM (129 SvE mice; first experiment, vehicle 9.5 ± 0.3) [mg] | mean uterine weight ± SEM (129 SvE mice; [2]) [mg] | Casein kinase II mRNA/18S rRNA (mean ± SEM) (casein kinase II mRNA) | melting point | pIC50 (human ERβ) | pIC50 (human ERα) | Progesterone receptor mRNA (mean ± stdev) [1] [arbitrary units]
1 | C[C@]12CC[C@@H]3c4ccc(O)cc4CC[C@H]3[C@@H]1CC[C@@H]2O [17β-estradiol, reference compound] | 46.7 ± 2.5 | 45.3 ± 1.9 | 39.0 ± 5.4 |  |  |  | 
2 | Oc1ccc2c(c1)COc1c-2ccc2cc(O)ccc12 [Example 1a, 6H-Dibenzo[c,h]chromene-2,8-diol] |  |  |  | 248 to 252 °C (dec.) | 8.48 | 7.13 | 
3 | Oc1ccc2c3c(ccc2c1)-c1cc(F)c(O)cc1CO3 [Example 1b, 9-Fluoro-6H-dibenzo[c,h]chromene-2,8-diol] |  |  |  | 230 to 231 °C (dec.) | 8.74 | 7.70 | 
4 | Oc1ccc2c(c1)COc1c-2ccc2ccccc12 [Example 1c, 6H-Dibenzo[c,h]chromen-8-ol] |  |  |  | 192 to 194 °C | 7.10 | 6.34 | 
5 | N#Cc1cc2c(c3ccc(O)cc13)OCc1cc(O)c(F)cc1-2 [Example 1e, 9-fluoro-2,8-dihydroxy-6H-dibenzo[c,h]chromene-12-carbonitrile] |  |  |  | > 250 °C | 7.72 | 5.91 | 
6 | N#Cc1cc2c(c3ccc(O)c(Cl)c13)OCc1cc(O)ccc1-2 [Example 1f, 1-Chloro-2,8-dihydroxy-6H-dibenzo[c,h]chromene-12-carbonitrile] |  |  |  | > 250 °C | 8.46 | 6.81 | 
7 | Oc1ccc2c(c1)COc1c-2ccc2c(Cl)c(O)ccc12 [Example 1g, 1-Chloro-6H-dibenzo[c,h]chromene-2,8-diol] |  |  |  | 216 to 218 °C | 8.57 | 7.13 | 
8 | Oc1ccc2c(c1)COc1c-2cc(Br)c2cc(O)ccc12 [Example 1h, 12-Bromo-6H-dibenzo[c,h]chromene-2,8-diol] |  |  |  | 178 to 180 °C (dec.) | 9.05 | 7.59 | 
9 | Oc1ccc2c(c1)COc1c-2cc(Cl)c2cc(O)ccc12 [Example 1i, 12-Chloro-6H-dibenzo[c,h]chromene-2,8-diol] |  | 28.9 ± 2.0 |  | 212 to 216 °C (dec.) | 8.96 | 7.77 | 57.5 ± 14.0
10 | Oc1ccc2c3c(cc(Br)c2c1)-c1cc(F)c(O)cc1CO3 [Example 1j, 12-Bromo-9-fluoro-6H-dibenzo[c,h]chromene-2,8-diol] |  |  |  | 194 to 197 °C | 8.70 | 7.11 | 
11 | Oc1ccc2c3c(cc(Cl)c2c1)-c1cc(F)c(O)cc1CO3 [Example 1k, 12-Chloro-9-fluoro-6H-dibenzo[c,h]chromene-2,8-diol] |  |  |  | 215 to 220 °C (dec.) | 8.70 | 7.57 | 
12 | COc1cc2c(c3ccc(O)cc13)OCc1cc(O)ccc1-2 [Example 1l, 12-Methoxy-6H-dibenzo[c,h]chromene-2,8-diol] |  |  |  | 224 °C (dec.) | 7.80 | 6.83 | 
13 | COc1c(Cl)c2c(c3ccc(O)cc13)OCc1cc(O)ccc1-2 [Example 1m, 11-Chloro-12-methoxy-6H-dibenzo[c,h]chromene-2,8-diol] |  |  |  |  | 9.57 | 7.98 | 
14 | Cc1cc2c(c3ccc(O)cc13)OCc1cc(O)ccc1-2 [Example 1n, 12-Methyl-6H-dibenzo[c,h]chromene-2,8-diol] |  |  |  | 220 to 224 °C (dec.) | 8.57 | 6.99 | 
15 | C=Cc1cc2c(c3ccc(O)cc13)OCc1cc(O)ccc1-2 [Example 1o, 12-Vinyl-6H-dibenzo[c,h]chromene-2,8-diol] |  |  |  | > 220 °C | 8.64 | 7.09 | 
16 | CCc1cc2c(c3ccc(O)cc13)OCc1cc(O)ccc1-2 [Example 1p, 12-Ethyl-6H-dibenzo[c,h]chromene-2,8-diol] |  |  |  | 184 to 192 °C | 8.54 | 7.36 | 
17 | Oc1ccc2c(c1)COc1c-2cc(-c2ccsc2)c2cc(O)ccc12 [Example 1q, 12-Thien-3-yl—6H-dibenzo[c,h]chromene-2,8-diol] |  |  |  | 179 to 182 °C | 7.53 | 6.81 | 
18 | Oc1ccc2c(c1)COc1c-2cc(-c2cccs2)c2cc(O)ccc12 [Example 1r, 12-Thien-2-yl-6H-dibenzo[c,h]chromene-2,8-diol] |  |  |  | 191 to 193 °C | 7.32 | 6.66 | 
19 | CCCCc1cc2c(c3ccc(O)cc13)OCc1cc(O)ccc1-2 [Example 1s, 12-Butyl-6H-dibenzo[c,h]chromene-2,8-diol] |  |  |  | 118 to 121 °C | 8.52 | 7.15 | 
20 | CCCc1cc2c(c3ccc(O)cc13)OCc1cc(O)ccc1-2 [Example 1t, 12-Propyl-6H-dibenzo[c,h]chromene-2,8-diol] |  |  |  | 86 to 95 °C | 7.96 | 6.80 | 
21 | Oc1ccc2c(c1)COc1c-2ccc2c(O)cccc12 [Example 1u, 6H-dibenzo[c,h]chromene-1,8-diol] |  |  |  | 213 to 214 °C | 8.85 | 7.77 | 
22 | Oc1ccc2c(c1)COc1c-2cc(Cl)c2c(O)cccc12 [Example 1v, 12-Chloro-6H-dibenzo[c,h]chromene-1,8-diol] |  |  |  |  | 9.05 | 8.35 | 
23 | Oc1ccc2c(c1)COc1c-2cc(Br)c2c(O)cccc12 [Example 1w, 12-Bromo-6H-dibenzo[c,h]chromene-1,8-diol] |  |  |  |  | 8.85 | 8.00 | 
24 | N#Cc1cc2c(c3cccc(O)c13)OCc1cc(O)ccc1-2 [Example 1x, 1,8-Di hydroxy-6H-di benzo[c,h]chromene-12-carbonitrile] |  |  |  |  | 8.82 | 7.07 | 
25 | Oc1ccc2c(c1)COc1c-2ccc2c(O)c(Cl)ccc12 [Example 1y, 2-Chloro-6H-dibenzo[c,h]chromene-1,8-diol] |  |  |  | 181 to 182 °C (dec.) | 8.78 | 7.75 | 
26 | Oc1ccc2c(c1)COc1c-2ccc2c(O)ccc(Cl)c12 [Example 1z, 4-chloro-6H-dibenzo[c,h]chromene-1,8-diol] |  |  |  |  | 9.10 | 8.00 | 
